Reference: ChEMBL document CHEMBL1139602, “Biological evaluation of Tyr6 and Ser7 modified drosocin analogues” (2005)
In brackets after ≈: the same amount, converted by molar mass. Square brackets hold non-standard residues; d marks the D form. Peptide text beside a SMILES is read from it. Ava = NCCCCC(=O)O; GABA = NCCCC(=O)O; βAla = NCCC(=O)O

Legend:
Cell line = assay: Percent of intact peptide after 8 hr of digestion in 25% human serum; format: functional
Escherichia coli = assay: Minimum inhibitory concentration against Escherichia coli ATCC 11775 strain; format: functional

Row | Compound | MIC (Escherichia coli) [µM] | Intact (Cell line) [%]
1 | CC[C@H](C)[C@H](NC(=O)[C@@H]1CCCN1C(=O)[C@H](CCCN=C(N)N)NC(=O)[C@@H]1CCCN1C(=O)[C@H](Cc1c[nH]cn1)NC(=O)[C@H](CO)NC(=O)[C@@H](NC(=O)[C@@H]1CCCN1C(=O)[C@H](CCCN=C(N)N)NC(=O)[C@@H]1CCCN1C(=O)[C@H](COC)NC(=O)[C@H](Cc1ccc(O)cc1)NC(=O)[C@@H]1CCCN1C(=O)[C@H](CCCN=C(N)N)NC(=O)[C@@H]1CCCN1C(=O)[C@H](CCCCN)NC(=O)CN)[C@@H](C)O)C(=O)N[C@@H](CCCN=C(N)N)C(=O)N[C@H](C=O)C(C)C (H-GKPRPYS(Me)PRPTSHPRPIRV-aldehyde) | 25 (≈ 54.9 µg/mL) | 11
2 | CC[C@H](C)[C@H](NC(=O)CNC(=O)[C@H](Cc1ccc(O)cc1)NC(=O)[C@H](CC(=O)O)NC(=O)[C@@H](NC(=O)[C@H](CO)NC(=O)CNC(=O)[C@H](CC(=O)O)NC(=O)[C@@H](NC(=O)[C@@H](N)CC(N)=O)[C@@H](C)O)[C@@H](C)O)C(=O)N[C@@H](CC(C)C)C(=O)N[C@@H](CCC(N)=O)C(=O)N[C@H](C(=O)N[C@@H](CC(N)=O)C(=O)N[C@@H](CO)C(=O)N[C@H](C=O)CCCN=C(N)N)[C@@H](C)CC | > 100 | 
3 | CC[C@H](C)[C@H](NC(=O)[C@@H]1CCCN1C(=O)[C@H](CCCN=C(N)N)NC(=O)[C@@H]1CCCN1C(=O)[C@H](Cc1c[nH]cn1)NC(=O)[C@H](CO)NC(=O)[C@@H](NC(=O)[C@@H]1CCCN1C(=O)[C@H](CCCN=C(N)N)NC(=O)[C@@H]1CCCN1C(=O)[C@H](CO)NC(=O)[C@@H](Cc1ccc(O)cc1)NC(=O)[C@@H]1CCCN1C(=O)[C@H](CCCN=C(N)N)NC(=O)[C@@H]1CCCN1C(=O)[C@H](CCCCN)NC(=O)CN)[C@@H](C)O)C(=O)N[C@@H](CCCN=C(N)N)C(=O)N[C@H](C=O)C(C)C | 6.3 (≈ 13.8 µg/mL) | 16
4 | H-GKPRPYSPRPTSHPRPIRV-OH [DROSOCIN] | 6.3 | 3
5 | CC[C@H](C)[C@H](NC(=O)[C@@H]1CCCN1C(=O)[C@H](CCCN=C(N)N)NC(=O)[C@@H]1CCCN1C(=O)[C@H](Cc1c[nH]cn1)NC(=O)[C@H](CO)NC(=O)[C@@H](NC(=O)[C@@H]1CCCN1C(=O)[C@H](CCCN=C(N)N)NC(=O)[C@@H]1CCCN1C(=O)[C@@H](NC(=O)[C@H](Cc1ccc(O)cc1)NC(=O)[C@@H]1CCCN1C(=O)[C@H](CCCN=C(N)N)NC(=O)[C@@H]1CCCN1C(=O)[C@H](CCCCN)NC(=O)CCCCN)[C@@H](C)O)[C@@H](C)O)C(=O)N[C@@H](CCCN=C(N)N)C(=O)N[C@H](C(=O)O)C(C)C (H-[Ava]KPRPYTPRPTSHPRPIRV-OH) | 6.3 (≈ 14.2 µg/mL) | 84
6 | CC[C@H](C)[C@H](NC(=O)[C@@H]1CCCN1C(=O)[C@H](CCCN=C(N)N)NC(=O)[C@@H]1CCCN1C(=O)[C@H](Cc1c[nH]cn1)NC(=O)[C@H](CO)NC(=O)[C@@H](NC(=O)[C@@H]1CCCN1C(=O)[C@H](CCCN=C(N)N)NC(=O)[C@@H]1CCCN1C(=O)[C@@H](NC(=O)[C@H](Cc1ccc(O)cc1)NC(=O)[C@@H]1CCCN1C(=O)[C@H](CCCN=C(N)N)NC(=O)[C@@H]1CCCN1C(=O)[C@H](CCCCN)NC(=O)CCCN)C(C)C)[C@@H](C)O)C(=O)N[C@@H](CCCN=C(N)N)C(=O)N[C@H](C=O)C(C)C (H-[GABA]KPRPYVPRPTSHPRPIRV-aldehyde) | 6.3 (≈ 14 µg/mL) | 76
7 | CC[C@H](C)[C@H](NC(=O)[C@@H]1CCCN1C(=O)[C@H](CCCN=C(N)N)NC(=O)[C@@H]1CCCN1C(=O)[C@H](Cc1c[nH]cn1)NC(=O)[C@H](CO)NC(=O)[C@@H](NC(=O)[C@@H]1CCCN1C(=O)[C@H](CCCN=C(N)N)NC(=O)[C@@H]1CCCN1C(=O)[C@@H](NC(=O)[C@H](Cc1ccc(O)cc1)NC(=O)[C@@H]1CCCN1C(=O)[C@H](CCCN=C(N)N)NC(=O)[C@@H]1CCCN1C(=O)[C@H](CCCCN)NC(=O)CN)C(C)C)[C@@H](C)O)C(=O)N[C@@H](CCCN=C(N)N)C(=O)N[C@H](C=O)C(C)C (H-GKPRPYVPRPTSHPRPIRV-aldehyde) | 12.5 (≈ 27.4 µg/mL) | 
8 | CC[C@H](C)[C@H](NC(=O)[C@@H]1CCCN1C(=O)[C@H](CCCN=C(N)N)NC(=O)[C@@H]1CCCN1C(=O)[C@H](Cc1c[nH]cn1)NC(=O)[C@H](CO)NC(=O)[C@@H](NC(=O)[C@@H]1CCCN1C(=O)[C@H](CCCN=C(N)N)NC(=O)[C@@H]1CCCN1C(=O)[C@@H](CO)NC(=O)[C@@H](Cc1ccc(O)cc1)NC(=O)[C@@H]1CCCN1C(=O)[C@H](CCCN=C(N)N)NC(=O)[C@@H]1CCCN1C(=O)[C@H](CCCCN)NC(=O)CN)[C@@H](C)O)C(=O)N[C@@H](CCCN=C(N)N)C(=O)N[C@H](C=O)C(C)C | 25 (≈ 54.6 µg/mL) | 17

Now those with a lower MIC (Escherichia coli), led by results:

Row | MIC (Escherichia coli) [µM] | Compound | Intact (Cell line) [%]
9 | 3.1 (≈ 6.9 µg/mL) | CC[C@H](C)[C@H](NC(=O)[C@@H]1CCCN1C(=O)[C@H](CCCN=C(N)N)NC(=O)[C@@H]1CCCN1C(=O)[C@H](Cc1c[nH]cn1)NC(=O)[C@H](CO)NC(=O)[C@@H](NC(=O)[C@@H]1CCCN1C(=O)[C@H](CCCN=C(N)N)NC(=O)[C@@H]1CCCN1C(=O)[C@@H](NC(=O)[C@H](Cc1ccc(O)cc1)NC(=O)[C@@H]1CCCN1C(=O)[C@H](CCCN=C(N)N)NC(=O)[C@@H]1CCCN1C(=O)[C@H](CCCCN)NC(=O)CCN)[C@@H](C)O)[C@@H](C)O)C(=O)N[C@@H](CCCN=C(N)N)C(=O)N[C@H](C(=O)O)C(C)C (H-[βAla]KPRPYTPRPTSHPRPIRV-OH) | 87
10 | 3.1 (≈ 6.72 µg/mL) | CC[C@H](C)[C@H](NC(=O)[C@@H]1CCCN1C(=O)[C@H](CCCN=C(N)N)NC(=O)[C@@H]1CCCN1C(=O)[C@H](Cc1c[nH]cn1)NC(=O)[C@H](CO)NC(=O)[C@@H](NC(=O)[C@@H]1CCCN1C(=O)[C@H](CCCN=C(N)N)NC(=O)[C@@H]1CCCN1C(=O)[C@H](CO)NC(=O)[C@H](Cc1ccccc1)NC(=O)[C@@H]1CCCN1C(=O)[C@H](CCCN=C(N)N)NC(=O)[C@@H]1CCCN1C(=O)[C@H](CCCCN)NC(=O)CN)[C@@H](C)O)C(=O)N[C@@H](CCCN=C(N)N)C(=O)N[C@H](C=O)C(C)C (H-GKPRPFSPRPTSHPRPIRV-aldehyde) | 19
11 | 3.1 (≈ 6.77 µg/mL) | CC[C@H](C)[C@H](NC(=O)[C@@H]1CCCN1C(=O)[C@H](CCCN=C(N)N)NC(=O)[C@@H]1CCCN1C(=O)[C@H](Cc1c[nH]cn1)NC(=O)[C@H](CO)NC(=O)[C@@H](NC(=O)[C@@H]1CCCN1C(=O)[C@H](CCCN=C(N)N)NC(=O)[C@@H]1CCCN1C(=O)[C@@H](CO)NC(=O)[C@H](Cc1ccc(O)cc1)NC(=O)[C@@H]1CCCN1C(=O)[C@H](CCCN=C(N)N)NC(=O)[C@@H]1CCCN1C(=O)[C@H](CCCCN)NC(=O)CN)[C@@H](C)O)C(=O)N[C@@H](CCCN=C(N)N)C(=O)N[C@H](C=O)C(C)C | 1
12 | 3.1 (≈ 6.81 µg/mL) | CC[C@H](C)[C@H](NC(=O)[C@@H]1CCCN1C(=O)[C@H](CCCN=C(N)N)NC(=O)[C@@H]1CCCN1C(=O)[C@H](Cc1c[nH]cn1)NC(=O)[C@H](CO)NC(=O)[C@@H](NC(=O)[C@@H]1CCCN1C(=O)[C@H](CCCN=C(N)N)NC(=O)[C@@H]1CCCN1C(=O)C[C@@H](CO)NC(=O)[C@H](Cc1ccc(O)cc1)NC(=O)[C@@H]1CCCN1C(=O)[C@H](CCCN=C(N)N)NC(=O)[C@@H]1CCCN1C(=O)[C@H](CCCCN)NC(=O)CN)[C@@H](C)O)C(=O)N[C@@H](CCCN=C(N)N)C(=O)N[C@H](C=O)C(C)C | 31
13 | 3.1 (≈ 6.76 µg/mL) | CC[C@H](C)[C@H](NC(=O)[C@@H]1CCCN1C(=O)[C@H](CCCN=C(N)N)NC(=O)[C@@H]1CCCN1C(=O)[C@H](Cc1c[nH]cn1)NC(=O)[C@H](CO)NC(=O)[C@@H](NC(=O)[C@@H]1CCCN1C(=O)[C@H](CCCN=C(N)N)NC(=O)[C@@H]1CCCN1C(=O)[C@@H](NC(=O)[C@H](Cc1ccccc1)NC(=O)[C@@H]1CCCN1C(=O)[C@H](CCCN=C(N)N)NC(=O)[C@@H]1CCCN1C(=O)[C@H](CCCCN)NC(=O)CN)[C@@H](C)O)[C@@H](C)O)C(=O)N[C@@H](CCCN=C(N)N)C(=O)N[C@H](C=O)C(C)C (H-GKPRPFTPRPTSHPRPIRV-aldehyde) | 26
14 | 3.1 (≈ 6.81 µg/mL) | CC[C@H](C)[C@H](NC(=O)[C@@H]1CCCN1C(=O)[C@H](CCCN=C(N)N)NC(=O)[C@@H]1CCCN1C(=O)[C@H](Cc1c[nH]cn1)NC(=O)[C@H](CO)NC(=O)[C@@H](NC(=O)[C@@H]1CCCN1C(=O)[C@H](CCCN=C(N)N)NC(=O)[C@@H]1CCCN1C(=O)[C@H](CO)NC(=O)C[C@@H](Cc1ccc(O)cc1)NC(=O)[C@@H]1CCCN1C(=O)[C@H](CCCN=C(N)N)NC(=O)[C@@H]1CCCN1C(=O)[C@H](CCCCN)NC(=O)CN)[C@@H](C)O)C(=O)N[C@@H](CCCN=C(N)N)C(=O)N[C@H](C=O)C(C)C | 2
15 | 1.6 (≈ 3.51 µg/mL) | CC[C@H](C)[C@H](NC(=O)[C@@H]1CCCN1C(=O)[C@H](CCCN=C(N)N)NC(=O)[C@@H]1CCCN1C(=O)[C@H](Cc1c[nH]cn1)NC(=O)[C@H](CO)NC(=O)[C@@H](NC(=O)[C@@H]1CCCN1C(=O)[C@H](CCCN=C(N)N)NC(=O)[C@@H]1CCCN1C(=O)[C@@H](NC(=O)[C@H](Cc1ccc(O)cc1)NC(=O)[C@@H]1CCCN1C(=O)[C@H](CCCN=C(N)N)NC(=O)[C@@H]1CCCN1C(=O)[C@H](CCCCN)NC(=O)CN)[C@@H](C)O)[C@@H](C)O)C(=O)N[C@@H](CCCN=C(N)N)C(=O)N[C@H](C=O)C(C)C (H-GKPRPYTPRPTSHPRPIRV-aldehyde) | 15
